The target in test [1] is T1, Type-1 angiotensin II receptor B (Rattus norvegicus, UniProt P29089).
T1 sequence (P29089 whole entry): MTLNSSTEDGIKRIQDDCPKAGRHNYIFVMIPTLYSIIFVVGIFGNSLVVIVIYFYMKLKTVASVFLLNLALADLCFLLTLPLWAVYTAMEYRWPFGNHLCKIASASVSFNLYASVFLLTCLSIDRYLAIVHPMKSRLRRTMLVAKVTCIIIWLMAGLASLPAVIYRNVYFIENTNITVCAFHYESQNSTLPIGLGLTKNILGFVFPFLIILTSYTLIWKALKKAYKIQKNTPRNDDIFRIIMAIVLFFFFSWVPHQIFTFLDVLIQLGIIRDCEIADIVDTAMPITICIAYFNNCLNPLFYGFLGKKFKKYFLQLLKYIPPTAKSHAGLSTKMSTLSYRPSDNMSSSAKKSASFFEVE
The test is described as follows: In vitro ability to displace the specific binding of [125I]-A II from receptors in rat liver membrane(type 1 receptor).

Test [2] has as its system Rattus norvegicus. Description: In vivo potency to inhibit the pressor response induced by angiotensin II (100ng/Kg, iv) in conscious normotensive rat at 24 hours after administration of 0.3 mg/kg, po. The class given is functional.
Test [3] relates to Rattus norvegicus. Description: In vivo potency to inhibit the pressor response induced by angiotensin II (100ng/Kg, iv) in conscious normotensive rat at 24 hours after administration of 1 mg/kg, po. The class given is functional.
For test [4], the system named is Rattus norvegicus. The test is described as follows: In vivo potency to inhibit the pressor response induced by angiotensin II (100ng/Kg, iv) in conscious normotensive rat at 24 hours after administration of 3 mg/kg, po. Format: functional. The conditions noted are these: for inhibition in vivo at 3 mg/kg: Rattus norvegicus, po, 24 h.
The test system of test [5] is Rattus norvegicus. Description: In vivo potency to inhibit the pressor response induced by angiotensin II (100ng/Kg, iv) in conscious normotensive rat at 6 hours after administration of 0.3 mg/kg, po. The class given is functional.
The subject of test [6] is Rattus norvegicus. The test is described as follows: In vivo potency to inhibit the pressor response induced by angiotensin II (100ng/Kg, iv) in conscious normotensive rat at 6 hours after administration of 1 mg/kg, po. Format: functional.
The subject of test [7] is Rattus norvegicus. The test is described as follows: In vivo potency to inhibit the pressor response induced by angiotensin II (100ng/Kg, iv) in conscious normotensive rat at 6 hours after administration of 3 mg/kg, po. The class given is functional. The conditions noted are these: for inhibition in vivo at 3 mg/kg: Rattus norvegicus, po, 6 h.
Test [8] has as its system Rattus norvegicus. Description: Compound was tested for antihypertensive effect in renal hypertensive rats at 1 mg/kg, po expressed as percent reduction in blood pressure. The class given is functional.
Test [9] relates to Rattus norvegicus. The test is described as follows: Compound was tested for antihypertensive effect in renal hypertensive rats at 3 mg/kg, po expressed as percent reduction in blood pressure. Format: functional.
Test [10] concerns Rattus norvegicus. The test is described as follows: Compound was tested for antihypertensive effect in renal hypertensive rats at 10 mg/kg, po expressed as percent reduction in blood pressure. The class given is functional.
For test [11], the system named is Rattus norvegicus. The test is described as follows: Compound was tested for antihypertensive effect in renal hypertensive rats at 0.3 mg/kg, po expressed as percent reduction in blood pressure. The class given is functional.
Test [12] has as its system Rattus norvegicus. Description: In vivo potency to inhibit the pressor response induced by angiotensin II (100ng/Kg, iv) in conscious normotensive rat at 6 hours after administration of 0.1 mg/kg, po.
Test [13] has as its system Rattus norvegicus. Description: In vivo potency to inhibit the pressor response induced by angiotensin II (100ng/Kg, iv) in conscious normotensive rat at 24 hours after administration of 0.1 mg/kg, po.
Test [14] deals with Rattus norvegicus. Description: Antihypertensive effect as reduction in blood pressure in renal hypertensive rats at 10 mg/kg dose specified administered perorally. The settings on record: route oral. Further details: scale not given: the % may be the effect or the level left. Format: functional.
Test [15] concerns Rattus norvegicus. Description: Antihypertensive effect as reduction in blood pressure in renal hypertensive rats at 3 mg/kg dose specified administered perorally. The class given is functional. Further details: scale not given: the % may be the effect or the level left. The conditions noted are these: route oral.
Test [16] relates to Rattus norvegicus. The test is described as follows: In vivo potency to inhibit the pressor responses induced by angiotensin II (100ng/kg, iv) in conscious normotensive rat at 10 mg/kg dose specified 24 hr after peroral administration. The class given is functional. The settings on record: route oral.
Test [17] deals with Rattus norvegicus. The test is described as follows: In vivo potency to inhibit the pressor responses induced by angiotensin II (100ng/kg, iv) in conscious normotensive rat at 10 mg/kg dose specified 6 hr upon peroral administration. The class given is functional. The settings on record: route oral.
For test [18], the system named is Rattus norvegicus. The test is described as follows: In vivo potency to inhibit the pressor responses induced by angiotensin II (100ng/kg, iv) in conscious normotensive rat at 3 mg/kg dose specified 24 hr after peroral administration. The class given is functional. The settings on record: route oral.
Test [19] concerns Rattus norvegicus. The test is described as follows: In vivo potency to inhibit the pressor responses induced by angiotensin II (100ng/kg, iv) in conscious normotensive rat at 1 mg/kg dose specified 24 hr after peroral administration. The class given is functional. The conditions noted are these: route oral.
Test [20] deals with Rattus norvegicus. The test is described as follows: In vivo potency to inhibit the pressor responses induced by angiotensin II (100ng/kg, iv) in conscious normotensive rat at 3 mg/kg dose specified 6 hr upon peroral administration. The class given is functional. The conditions noted are these: route oral.
Test [21] relates to Rattus norvegicus. The test is described as follows: In vivo potency to inhibit the pressor responses induced by angiotensin II (100ng/kg, iv) in conscious normotensive rat at 1 mg/kg dose specified 6 hr upon peroral administration. The class given is functional. The conditions noted are these: route oral.

Broadly, the IC50 is the point on the concentration scale where inhibition reaches its midpoint. The inhibition in vivo is the drop in the measured response relative to a control, in per cent. One may read the Inhibition as the relative decrease from the control value, in per cent. In turn, `CCc1nn(Cc2ccc(-c3ccccc3-c3nn[nH]n3)cc2)/c(=N/C(=O)C2=C(C(=O)O)CCC2)s1` showed a half-maximal inhibitory concentration (IC50) in [1] of 0.44 nM. For the same compound, in test [2] (Rattus norvegicus, po, 24 h), the inhibition in vivo at 0.3 mg/kg is 15%. Also, the Inhibition in test [3] was determined as 36.6%; in test [4], 63.1%; in test [5], 22.4%; in [6], 36.4%; in [7], 39.5%. The Reduction was found to be 33.5% in test [8] and 44.3% in test [9].

`CCc1nn(Cc2ccc(-c3ccccc3-c3nn[nH]n3)cc2)/c(=N/C(=O)c2ccccc2)s1` yielded a concentration for half-maximal inhibition (IC50) in [1] of 37 nM. Also, the inhibition in vivo at 3 mg/kg is -0.4% in test [4] and 4.9% in test [7].

`CCc1nn(Cc2ccc(-c3ccccc3-c3nn[nH]n3)cc2)/c(=N/C(=O)c2ccccc2Cl)s1` returned a concentration for half-maximal inhibition (IC50) in test [1] of 3.6 nM. Moreover, the inhibition in vivo at 3 mg/kg in [4] was -11.3%; in [7] it was 21.3%. This compound gave a Reduction in test [10] of 20.2%.

`CCc1nn(Cc2ccc(-c3ccccc3-c3nn[nH]n3)cc2)/c(=N/C(=O)C2CC2)s1` yielded an IC50 in test [1] of 6.5 nM. Besides, the inhibition in vivo at 3 mg/kg was -12.4% in test [4] and 7.8% in test [7].

For the compound `CCc1nn(Cc2ccc(-c3ccccc3-c3nn[nH]n3)cc2)/c(=N/C(=O)C2=C(C(=O)[O-])CCC2)s1.[K+]`, the Inhibition in test [2] is listed as 20.7%; in test [3], 57%; in test [5] it was 45.4%; in test [6], 72.1%; in [12], 11.4%; in [13], -0.7%. The values for the Reduction in test [11] and in test [8] were 27.2% and 38.4%, respectively.

In [1], `CCc1nn(Cc2ccc(-c3ccccc3-c3nn[nH]n3)cc2)/c(=N/C(=O)c2ccccc2C(=O)O)s1` came in with an IC50 of 0.66 nM. Further, the inhibition in vivo at 3 mg/kg turned out to be 23.2% in test [4] and 48.1% in test [7]. Also, the Reduction in [10] came out at 33.8%; in [9] it was 25.1%.

`CCc1nn(Cc2ccc(-c3ccccc3-c3nn[nH]n3)cc2)/c(=N/C(C)=O)s1` came in with an IC50 in test [1] of 7.2 nM. In addition, the inhibition in vivo at 3 mg/kg in test [4] was -10.3%; in [7] it was 11.3%.

As to `CCCCc1nc(Cl)c(CO)n1Cc1ccc(-c2ccccc2-c2nnn[n-]2)cc1.[K+]` [LOSARTAN POTASSIUM], the Activity is on record as 40.4% in [14] and 27.4% in test [15]. Also, the inhibition in vivo at 10 mg/kg was found to be 57.4% in [16] and 74.2% in test [17]. For the same compound, the inhibition in vivo at 3 mg/kg worked out at 27.9% in test [18] and 50.1% in test [20]. Further, the inhibition in vivo at 1 mg/kg in [19] was 7.3%; in test [21], 19.3%.

Source of the values: ChEMBL document CHEMBL1149953 (Bioorg Med Chem Lett, 1996).
